Assay results reported in ChEMBL document CHEMBL1154501, “2/4-Substituted-9-fluorenones and their O-glucosides as potential immunomodulators and anti-herpes simplex virus-2 agents. Part 5” (Eur J Med Chem, 2008).

Assays:
[1] = system: PBMC; assay: Induction of IFNalpha release in human PBMC at 20 ug/mL after 48 hrs by ELISA; type: functional
[2] = system: Human alphaherpesvirus 2; assay: Antiviral activity against HSV2 in human PBMC assessed as inhibition of viral replication at 20 ug/mL; type: functional
[3] = system: PBMC; assay: Cytotoxicity against human PBMC at 40 ug/mL after 48 hrs by MTT assay; type: cell-based
[4] = system: PBMC; assay: Induction of TNFalpha release in human PBMC at 20 ug/mL after 24 hrs by ELISA; type: functional
[5] = system: PBMC; assay: Cytotoxicity against human PBMC at 20 ug/mL after 48 hrs by MTT assay; type: cell-based
[6] = system: PBMC; assay: Cytotoxicity against human PBMC at 60 ug/mL after 48 hrs by MTT assay; type: cell-based
[7] = system: PBMC; assay: Induction of TNFalpha release in human PBMC at 20 ug/mL after 48 hrs by ELISA; type: functional
[8] = system: PBMC; assay: Induction of IFNalpha release in human PBMC at 20 ug/mL after 24 hrs by ELISA; type: functional
[9] = system: Human alphaherpesvirus 2; assay: Antiviral activity against HSV2 in human PBMC assessed as inhibition of viral replication at 40 ug/mL; type: functional
[10] = system: PBMC; assay: Induction of TNFalpha release in human PBMC at 40 ug/mL after 48 hrs by ELISA; type: functional
[11] = system: PBMC; assay: Induction of IFNalpha release in human PBMC at 40 ug/mL after 24 hrs by ELISA; type: functional
[12] = system: PBMC; assay: Induction of TNFalpha release in human PBMC at 40 ug/mL after 24 hrs by ELISA; type: functional
[13] = system: PBMC; assay: Induction of IFNalpha release in human PBMC at 40 ug/mL after 48 hrs by ELISA; type: functional

## O=C(OCCCCO[C@H]1O[C@H](CO[C@H]2O[C@H](CO[C@H]3O[C@H](CO)[C@@H](O)[C@H](O)[C@H]3O)[C@@H](O)[C@H](O)[C@H]2O)[C@@H](O)[C@H](O)[C@H]1O)c1cccc2c1-c1ccccc1C2=O
[1]
  Activity: 14 pg/mL
[2]
  PFU/ml: 70000
[3]
  Activity: 19%
[4]
  Activity: <5.8 pg/mL
[5]
  Activity: 0%
[6]
  Activity: 42%
[7]
  Activity: 9 pg/mL
[8]
  Activity: <4.8 pg/mL

## O=C(OCCCCO[C@@H]1O[C@H](CO)[C@@H](O[C@H]2O[C@H](CO)[C@@H](O)[C@H](O)[C@H]2O)[C@H](O)[C@H]1O)c1cccc2c1-c1ccccc1C2=O
[3]
  Activity: 37%
[5]
  Activity: 26%
[6]
  Activity: 69%

## O=C(NCCO)c1ccc2c(c1)C(=O)c1ccccc1-2
[9]
  PFU/ml: 37000
[10]
  Activity: 36 pg/mL
[1]
  Activity: 11 pg/mL
[2]
  PFU/ml: 48000
[3]
  Activity: 0%
[11]
  Activity: 9 pg/mL
[12]
  Activity: 14 pg/mL
[4]
  Activity: <5.8 pg/mL
[5]
  Activity: 0%
[6]
  Activity: 2%
[7]
  Activity: 13 pg/mL
[8]
  Activity: <4.8 pg/mL
[13]
  Activity: 29 pg/mL

## O=C(OCCO)c1cccc2c1-c1ccccc1C2=O
[1]
  Activity: 16 pg/mL
[2]
  PFU/ml: 58000
[3]
  Activity: 6%
[4]
  Activity: <5.8 pg/mL
[5]
  Activity: 0%
[6]
  Activity: 14%
[7]
  Activity: 21 pg/mL
[8]
  Activity: <4.8 pg/mL

## O=C(OCCCO)c1cccc2c1-c1ccccc1C2=O
[1]
  Activity: 8 pg/mL
[2]
  PFU/ml: 60000
[3]
  Activity: 22%
[4]
  Activity: <5.8 pg/mL
[5]
  Activity: 0%
[6]
  Activity: 41%
[7]
  Activity: 11 pg/mL
[8]
  Activity: <4.8 pg/mL

## O=C(OCCCCO)c1cccc2c1-c1ccccc1C2=O
[1]
  Activity: 12 pg/mL
[2]
  PFU/ml: 71000
[3]
  Activity: 21%
[4]
  Activity: <5.8 pg/mL
[5]
  Activity: 0%
[6]
  Activity: 38%
[7]
  Activity: 6 pg/mL
[8]
  Activity: <4.8 pg/mL

## O=C(OCCCCO[C@H]1O[C@H](CO)[C@@H](O)[C@H](O)[C@H]1O)c1cccc2c1-c1ccccc1C2=O
[3]
  Activity: 38%
[5]
  Activity: 22%
[6]
  Activity: 57%

## O=C(OCCCCO[C@@H]1O[C@H](CO)[C@@H](O)[C@H](O)[C@H]1O)c1cccc2c1-c1ccccc1C2=O
[9]
  PFU/ml: 36000
[10]
  Activity: 30 pg/mL
[1]
  Activity: 10 pg/mL
[2]
  PFU/ml: 78000
[3]
  Activity: 0%
[11]
  Activity: <4.8 pg/mL
[12]
  Activity: <5.8 pg/mL
[4]
  Activity: <5.8 pg/mL
[5]
  Activity: 0%
[6]
  Activity: 7%
[7]
  Activity: 18 pg/mL
[8]
  Activity: <4.8 pg/mL
[13]
  Activity: 29 pg/mL

## O=C(NCCCCO)c1ccc2c(c1)C(=O)c1ccccc1-2
[3]
  Activity: 28%
[5]
  Activity: 20%
[6]
  Activity: 45%

## O=C(NCCCO)c1ccc2c(c1)C(=O)c1ccccc1-2
[9]
  PFU/ml: 4100
[10]
  Activity: 51 pg/mL
[1]
  Activity: 7 pg/mL
[2]
  PFU/ml: 6500
[3]
  Activity: 0%
[11]
  Activity: 13 pg/mL
[12]
  Activity: 27 pg/mL
[4]
  Activity: <5.8 pg/mL
[5]
  Activity: 0%
[6]
  Activity: 15%
[7]
  Activity: 40 pg/mL
[8]
  Activity: <4.8 pg/mL
[13]
  Activity: 37 pg/mL

## O=C(NCCOCCO)c1ccc2c(c1)C(=O)c1ccccc1-2
[9]
  PFU/ml: 3900
[10]
  Activity: 48 pg/mL
[1]
  Activity: 21 pg/mL
[2]
  PFU/ml: 5300
[3]
  Activity: 0%
[11]
  Activity: 6 pg/mL
[12]
  Activity: 24 pg/mL
[4]
  Activity: <5.8 pg/mL
[5]
  Activity: 0%
[6]
  Activity: 4%
[7]
  Activity: 17 pg/mL
[8]
  Activity: <4.8 pg/mL
[13]
  Activity: 38 pg/mL

## CC(O)CNC(=O)c1ccc2c(c1)C(=O)c1ccccc1-2 (stereo unspecified)
[9]
  PFU/ml: 3500
[10]
  Activity: 33 pg/mL
[1]
  Activity: 18 pg/mL
[2]
  PFU/ml: 6000
[3]
  Activity: 0%
[11]
  Activity: 21 pg/mL
[12]
  Activity: 14 pg/mL
[4]
  Activity: <5.8 pg/mL
[5]
  Activity: 0%
[6]
  Activity: 5%
[7]
  Activity: 20 pg/mL
[8]
  Activity: <4.8 pg/mL
[13]
  Activity: 45 pg/mL

## O=C(NCCOCCO[C@H]1O[C@H](CO)[C@@H](O)[C@H](O)[C@H]1O)c1ccc2c(c1)C(=O)c1ccccc1-2
[9]
  PFU/ml: 34000
[10]
  Activity: 30 pg/mL
[1]
  Activity: 17 pg/mL
[2]
  PFU/ml: 60000
[3]
  Activity: 0%
[11]
  Activity: <4.8 pg/mL
[12]
  Activity: <5.8 pg/mL
[4]
  Activity: <5.8 pg/mL
[5]
  Activity: 0%
[6]
  Activity: 16%
[7]
  Activity: 14 pg/mL
[8]
  Activity: <4.8 pg/mL
[13]
  Activity: 31 pg/mL

## O=C(OCCCCO[C@@H]1O[C@H](CO[C@H]2O[C@H](CO)[C@@H](O)[C@H](O)[C@H]2O)[C@@H](O)[C@H](O)[C@H]1O)c1cccc2c1-c1ccccc1C2=O
[1]
  Activity: 9 pg/mL
[2]
  PFU/ml: 68000
[3]
  Activity: 29%
[4]
  Activity: <5.8 pg/mL
[5]
  Activity: 0%
[6]
  Activity: 52%
[7]
  Activity: 15 pg/mL
[8]
  Activity: <4.8 pg/mL

## O=C(NCCOCCO[C@@H]1O[C@H](CO)[C@@H](O[C@H]2O[C@H](CO)[C@@H](O)[C@H](O)[C@H]2O)[C@H](O)[C@H]1O)c1ccc2c(c1)C(=O)c1ccccc1-2
[9]
  PFU/ml: 32000
[10]
  Activity: 27 pg/mL
[1]
  Activity: 10 pg/mL
[2]
  PFU/ml: 53000
[3]
  Activity: 0%
[11]
  Activity: <4.8 pg/mL
[12]
  Activity: <5.8 pg/mL
[4]
  Activity: <5.8 pg/mL
[5]
  Activity: 0%
[6]
  Activity: 18%
[7]
  Activity: 18 pg/mL
[8]
  Activity: <4.8 pg/mL
[13]
  Activity: 30 pg/mL

## O=C(NCCOCCO[C@@H]1O[C@H](CO)[C@@H](O)[C@H](O)[C@H]1O)c1ccc2c(c1)C(=O)c1ccccc1-2
[9]
  PFU/ml: 36000
[10]
  Activity: 39 pg/mL
[1]
  Activity: 17 pg/mL
[2]
  PFU/ml: 49000
[3]
  Activity: 0%
[11]
  Activity: 8 pg/mL
[12]
  Activity: 13 pg/mL
[4]
  Activity: 9 pg/mL
[5]
  Activity: 0%
[6]
  Activity: 6%
[7]
  Activity: 31 pg/mL
[8]
  Activity: <4.8 pg/mL
[13]
  Activity: 31 pg/mL

## O=C(NCCOCCOC1O[C@H](COC2O[C@H](CO)[C@@H](O)[C@H](O)[C@H]2O)[C@@H](O)[C@H](O)[C@H]1O)c1ccc2c(c1)C(=O)c1ccccc1-2 (single isomer, unassigned)
[9]
  PFU/ml: 35000
[10]
  Activity: 21 pg/mL
[1]
  Activity: 14 pg/mL
[2]
  PFU/ml: 42000
[3]
  Activity: 0%
[11]
  Activity: <4.8 pg/mL
[12]
  Activity: <5.8 pg/mL
[4]
  Activity: <5.8 pg/mL
[5]
  Activity: 0%
[6]
  Activity: 21%
[7]
  Activity: 16 pg/mL
[8]
  Activity: <4.8 pg/mL
[13]
  Activity: 25 pg/mL
